Laboratory results: patent US20080139664A1, “ANTI-GLYCATION AGENTS FOR PREVENTING AGE-, DIABETES-, AND SMOKING-RELATED COMPLICATIONS” (NATIONAL RESEARCH COUNCIL OF CANADA, priority 2001, published 2008)
Where two headings read alike, the source gives them in different places.

Experiments:
[1] = test system: bovine serum albumin (BSA); assay: Fluorescamine assay of free primary amino groups of BSA incubated with D-ribose; assay type: biochemical; conditions: for Unreacted amino group: free primary amino group on BSA after 5 days at 37° C., agent at 16.8 times IC50, 64% without agent
[2] = test system: bovine serum albumin (BSA); assay: SDS-PAGE assessment of BSA-BSA protein cross-links; assay type: biochemical; conditions: mixtures further incubated for 4 weeks; further: key: ++: strongly suppressed; +: suppressed; −: no suppression; *: moderate acceleration of the cross-linking
Procedure: Additionally, protein cross-links were semi-quantitatively assessed by SDS PAGE gel chromatography.
Protein-protein cross-links were characterized by SDS-PAGE. The incubation mixtures used for determination of the amino groups were further incubated for 4 weeks. An aliquot of the solution was applied to Pharmacia SDS FAST gel and the proteins were stained with Coomassie blue.

[3] = test system: bovine serum albumin (BSA)
[4] = test system: lysozyme; assay: ESI-MS of lysozyme glycoforms after incubation with D-ribose;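 further: lysozyme incubated with D-ribose, with or without anti-glycation agents, then separated by reversed-phase HPLC and analysed by electrospray mass spectrometry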
[5] = test system: bovine serum albumin (BSA); assay: Maillard fluorescence-based assay of AGEs formation, IC50 determination (BSA + D-ribose); conditions: inhibition of Maillard fluorescence development; 0.075 mM BSA, 50 mM D-ribose, 37° C., 5 days
[6] = lysozyme + 2D-ribose − 2H2O (14,569 Da), 37° C., 5 days
[7] = lysozyme + 2D-ribose − 3H2O (14,551 Da), 37° C., 5 days
[8] = lysozyme + 2D-ribose − 5H2O (14,533 Da), 37° C., 5 days
[9] = lysozyme + 2D-ribose − 6H2O (14,515 Da), 37° C., 5 days
[10] = lysozyme + D-ribose − 2H2O (14,419 Da), 37° C., 5 days
[11] = lysozyme + D-ribose − 3H2O (14,401 Da), 37° C., 5 days
[12] = lysozyme + D-ribose − H2O (14,437 Da), 37° C., 5 days
[13] = lysozyme + D-ribose − H2O with one carboxymethylated Lys residue (14,496 Da), 37° C., 5 days
[14] = lysozyme with one carboxymethylated Lys residue (14,364 Da), 37° C., 5 days
[15] = unmodified lysozyme (14,305 Da), 37° C., 5 days

Compound | Unreacted amino group [1] | Suppression of BSA-BSA cross-links [2] | Peak area as % of total area of all glycoforms, 14,569 [4, 6] | Peak area as % of total area of all glycoforms, 14,551 [4, 7] | Peak area as % of total area of all glycoforms, 14,533 [4, 8] | Peak area as % of total area of all glycoforms, 14,515 [4, 9] | Peak area as % of total area of all glycoforms, 14,419 [4, 10] | Peak area as % of total area of all glycoforms, 14,401 [4, 11] | Peak area as % of total area of all glycoforms, 14,437 [4, 12] | Peak area as % of total area of all glycoforms, 14,496 [4, 13] | Peak area as % of total area of all glycoforms, 14,364 [4, 14] | Peak area as % of total area of all glycoforms, 14,305 [4, 15] | IC50 [5] | other results
O=S(=O)(O)c1ccc(O)c2ncccc12 [8-Hydroxyquinoline-5-sulfonic acid] | 76% | ++ | 5.2% | 0.9% | 1.0% | 0.5% | 3.2% | 2.0% | 27.9% | 0.0% | 0.7% | 58.0% |  | IC50 [3]: 560 µM
Oc1cccc2cccnc12 [8-Hydroxyquinoline] | 55% | + |  |  |  |  |  |  |  |  |  |  |  | IC50 [3]: 95 µM; Peak area as % of total area of all glycoforms, 14,305 [4]: 67.8%; Peak area as % of total area of all glycoforms, 14,364 [4]: 4.2%; Peak area as % of total area of all glycoforms, 14,401 [4]: 5.8%; Peak area as % of total area of all glycoforms, 14,419 [4]: 3.6%; Peak area as % of total area of all glycoforms, 14,437 [4]: 9.0%; Peak area as % of total area of all glycoforms, 14,496 [4]: 1.7%; Peak area as % of total area of all glycoforms, 14,515 [4]: 1.7%; Peak area as % of total area of all glycoforms, 14,533 [4]: 1.6%; Peak area as % of total area of all glycoforms, 14,551 [4]: 1.5%; Peak area as % of total area of all glycoforms, 14,569 [4]: 2.3%
CNCC(=O)c1ccc(O)c(O)c1 [Adrenalone] | 45% |  | 3.3% | 1.3% | 1.3% | 1.5% | 2.5% | 1.7% | 17.2% | 2.2% | 4.8% | 59.3% | 57 µM | 
CC(C)NC[C@@H](O)c1ccc(O)c(O)c1 [D-Isoproterenol] | 68% | + | 1.4% | 0.2% | 0.5% | 0.0% | 1.8% | 0.8% | 13.7% | 0.6% | 4.7% | 76.2% |  | 
O=C1C[C@@H](c2ccc(O)c(O)c2)Oc2cc(O)cc(O)c21 [Eriodictyol] | 43% |  | 3.1% | 1.6% | 1.1% | 0.0% | 5.0% | 0.4% | 20.2% | 0.0% | 1.9% | 66.7% | 250 µM | 
CC(C)NC[C@H](O)c1ccc(O)c(O)c1 [L-Isoproterenol] | 73% | + | 2.2% | 0.8% | 1.0% | 0.9% | 2.3% | 2.5% | 16.5% | 1.4% | 5.3% | 67.0% |  | effect on protection of amino groups of BSA ([1]; in words): protect the amino group against glycation
NC[C@@H](O)c1ccc(O)c(O)c1 [L-Norepinephrine] | 70% | + | 1.2% | 0.0% | 0.0% | 0.0% | 2.4% | 2.3% | 12.0% | 0.9% | 5.3% | 75.9% |  | 
O=[N+]([O-])c1ccc(O)c2ncccc12 [Nitroxoline] | 76% |  | 1.4% | 2.1% | 1.2% | 1.2% | 7.8% | 3.3% | 11.0% | 1.0% | 4.2% | 66.7% | 300 µM | 
O=c1c(O)cccc2cc(O)c(O)c(O)c12 [Purpurogallin] | 31% |  | 3.6% | 1.2% | 0.9% | 0.0% | 4.1% | 0.0% | 22.2% | 0.0% | 0.0% | 67.9% | 76 µM | 
Cc1cc(N)c2ccccc2c1O [Vitamin K5] | 51% |  | 1.6% | 1.3% | 1.6% | 0.0% | 3.3% | 0.0% | 12.2% | 0.0% | 4.9% | 75.1% | 90 µM | 
Kaempferide | 49% |  | 3.9% | 4.4% | 4.0% | 1.6% | 8.9% | 5.4% | 18.5% | 0.0% | 2.5% | 46.7% | 280 µM | 
